{
  "source": "paper PMC5379102",
  "about": "“Sequence-selective encapsulation and protection of long peptides by a self-assembled Fe^II8L6 cubic cage” (Nature Communications, 2017)",
  "key": {"[1]": {"target": "cage 1 (Fe^II8L6 cubic cage with zinc porphyrin faces)", "experiment": "Ultraviolet-visible titration of cage 1 with guest (host-guest binding)", "protocol": "Ultraviolet–visible absorption spectroscopy measurements were performed using a Perkin Elmer Lambda 750 UV-Vis-NIR spectrophotometer fitted with a PTP-1 Peltier temperature controller accessory. Spectra were obtained in double beam mode using only the (front) analyte beam to record spectra, with air in the (rear) reference path. Samples were analysed using quartz cuvettes with optical path lengths of 1 mm. Unless otherwise specified, 417 nm was the wavelength selected to follow the binding of the guest.\nA solution of 1 in CH3CN:H2O (1:1) (250 μl, 1.5 μM) or pure acetonitrile was transferred to a cuvette. Small aliquots of the guest's solution were titrated into the cuvette. The experiment was performed at room temperature. Each experiment was repeated three times (Supplementary Figs 31–46 and Supplementary Methods). Data obtained from the ultraviolet–visible titration were then fitted using nonlinear analysis with DynaFit programme (Biokin Software)[30] to the binding equation derived for either 1:1 model (porphyrin:guest with one imidazole group) or 2:1 model (porphyrin:guest with two imidazole groups), except in the case of G7. G7 contains two histidine amino acids in consecutive positions, therefore the distance between the imidazole rings of these two amino acids is too short to allow the interaction with two porphyrins at the same time. In this case, the binding model was 2:1 peptide:cage.\nThe dilution effect was corrected by multiplying the observe intensity for the dilution factor before the fitting. The error reported for each affinity value is the formal standard error calculated by DynaFit[30] as the square root of the diagonal elements of the variance–covariance matrix. This s.e. gives an idea of the precision of the fitted value.\nThe experimental data obtained using UV-Vis spectroscopy for each guest was fitted using\nnonlinear analysis with DynaFit program (Biokin Software)2 to the binding equation derived\nfor 1:1 model porphyrin:imidazole group (non-cooperative model). […]"}, "[2]": {"system": "cage 1 (Fe^II8L6 cubic cage with zinc porphyrin faces)", "experiment": "Host-guest chemistry studied by 1H NMR titration", "assay_type": "binding", "settings": "shifts of β-pyrrolic protons of 1", "text": "We used 1-methylimidazole (G1) as an initial probe, following its binding by ^1H NMR spectroscopy. Due to the large cavity, only slight upfield shifts of the signals of the β-pyrrolic protons of 1 were observed following the addition of G1. […] However, when a 1:1 mixture of water:acetonitrile was used, it was necessary to add 70 equivalents to achieve saturation (Supplementary Fig. 27). We infer the weaker interaction in the presence of water to be due to competing hydrogen bonding between water and imidazole.\nA solution of 1 (0.5 ml) was prepared in a mixture of CD3CN:D2O (1:1) or in pure CD3CN and was transferred to a J-Young NMR tube. Aliquots of the guest were added in the same mixture of solvents. The NMR spectrum was recorded after each addition and the sample was mixed thoroughly before each measurement (Supplementary Figs 26–30)."}, "[3]": {"system": "trypsin", "experiment": "Trypsinization experiments (peptide hydrolysis by trypsin, with or without 1)", "assay_type": "in vitro ADME", "protocol": "(§1) Finally, we envisaged that the closed cubic architecture of 1 could protect its histidine-containing peptide guests from enzymatic degradation. For these experiments we used the protease trypsin, which cleaves exclusively on the C-terminal side of lysine and arginine residues. We initially examined G7 as a substrate. […] The incubation of a 20 μM solution of G8 with 0.3 equiv. of trypsin in a mixture of acetonitrile and phosphate buffer (pH=7.5) for 30 min led to the cleavage of G8 in 76% yield (Supplementary Fig. 49). When the same reaction was run in the presence of 0.6 equiv. of 1 (2:1 binding stoichiometry), the extent of cleavage was only 9% (Supplementary Fig. 50). The low degree of enzymatic degradation observed is consistent with the 9 μM dissociation constant of the adduct between 1 and G8, which implies the presence of a small amount of free peptide under the reaction conditions. Importantly, when the same experiment was carried out with a non-binding G9 in place of G8, with or without 1, quantitative G9 cleavage was observed (Supplementary Figs 52 and 53). In a further test, we treated a mixture of both peptides and 1 with trypsin, and incubated the mixture under identical conditions. In this case almost complete selectivity was observed.\n(§2) Trypsinization reactions were followed by analytical RP-HPLC with an Agilent 1,100 series LC using an Eclipse XDB-C18 analytical column (3 × 150 mm, 3.5 μm). Standard conditions for analytical RP-HPLC consisted on a linear gradient from 0 to 10% of solvent B in 5 min, it then increased from 10 to 70% in 30 min at a flow rate of 1.0 ml min^−1 (A: water with 0.1% trifluoroacetic acid (TFA), B: acetonitrile with 0.1% TFA); 55 μl of solution was injected to the column each time. Compounds were detected by ultraviolet absorption and subsequently characterized by electrospray ionization (ESI) (Supplementary Figs 48–56).\n(§3) The samples were prepared in 200 μl solution (40% CH3CN, 50% phosphate buffer and 10% H2O; phosphate buffer: 0.1 M, pH 7.5, 0.2 M NaCl). The concentration of the solution components were: peptides (G8 and G9) 20 μM, trypsin 6 μM and 1 12 μM. However, not all components were present in each sample, as noted in the main text. The reaction mixtures were stirred at room temperature for 30 min. It was observed that longer reaction times cause degradation of 1 due to the high concentration of NaCl in the phosphate buffer. After this time, H2O (200 μl) and acetic acid (8 μl) were added to quench the reaction. In the case of the control experiments with free Zn porphyrins, the concentration of the porphyrin was 72 μM."}, "[4]": {"experiment": "Trypsinization experiments (peptide hydrolysis by trypsin, with or without 1)", "assay_type": "in vitro ADME", "settings": "isolated enzyme trypsin; peptide 20 μM, trypsin 6 μM (0.3 equiv.), 40% CH3CN / 50% phosphate buffer (0.1 M, pH 7.5, 0.2 M NaCl) / 10% H2O, room temperature, 30 min, RP-HPLC UV; read-out: cleavage by trypsin, single peptide, no 1", "protocol": "as §1, §2, §3"}, "[5]": {"experiment": "Solubility observations", "assay_type": "physicochemical", "protocol": "In a J-Young NMR tube porphyrin A (4 mg, 3.3 μmol, 6 equiv.; Supplementary Figs 1–4 and Supplementary Methods), iron(II) triflate (1.5 mg, 4.4 μmol, 8 equiv.) and 5,6,7,8-tetrahydronaphthalen-2-amine B (1.9 mg, 13 μmol, 24 equiv.) were suspended in [D7]DMF (400 μl) and [D3]MeCN (100 μl). The solution was deoxygenated by three freeze-pump-thaw cycles, the tube was sealed, and heated in the oil bath for 8 h at 70 °C. After this time, the solution was opened to air and cooled to room temperature. […] The suspension was centrifuged and the solvent above the solid was removed. The purple solid was washed twice with chloroform (3 ml) and partially dried under nitrogen. The solid was dissolved in acetonitrile (0.5 ml) after drying with nitrogen. 1 (Supplementary Figs 5–12) was not soluble in pure water, but it is soluble in a 1:1 acetonitrile:water mixture (1 mg ml^−1)."}, "[6]": {"settings": "1:1 acetonitrile:water, 20 °C, 1 at 1.5 μM, UV-Vis at 417 nm, non-cooperative 1:1 imidazole (or thiazole):porphyrin model, except G7 (2:1 peptide:1), DynaFit fit, ± formal standard error, repeated three times, read-out: Kd (μM) in CD3CN:H2O (1:1)"}, "[7]": {"settings": "peptide 20 μM, trypsin 6 μM, 1 12 μM, 40% CH3CN / 50% phosphate buffer (0.1 M, pH 7.5, 0.2 M NaCl) / 10% H2O, room temperature, 30 min, RP-HPLC UV"}, "[8]": {"settings": "1:1 acetonitrile:water, 20 °C, 1 at 1.5 μM, UV-Vis at 417 nm, non-cooperative 1:1 imidazole (or thiazole):porphyrin model, except G7 (2:1 peptide:1), DynaFit fit, ± formal standard error, repeated three times"}},
  "note": "“Also recorded” adds a separate entry of the source. Where two headings read alike, the source gives them in different places. Non-standard residues stand in square brackets, D forms with d. Residues, ends and D or L forms follow the SMILES beside them. No end group written: not given here. *: point of attachment. Dnp = O=[N+]([O-])c1ccc(*)c([N+](=O)[O-])c1; 2Abz = Nc1ccccc1C(=O)O",
  "data": [
    {"molecule": "Cn1ccnc1", "note": "[Guest G1, 1-methylimidazole]", "values": [
      {"measurement": "Kd", "setting": "[1]; [6]", "value": "900 ± 70", "unit": "µM"},
      {"measurement": "Kd", "setting": "[1]; pure acetonitrile, 20 °C, 1 at 1.5 μM, UV-Vis at 417 nm, non-cooperative 1:1 imidazole:porphyrin model, DynaFit fit, ± formal standard error, repeated three times, read-out: Kd (μM) in CD3CN", "value": "30 ± 1", "unit": "µM"},
      {"measurement": "equivalents of guest at saturation (1H NMR)", "setting": "[2]; in 1:1 water:acetonitrile", "value": 70, "unit": "equivalents"},
      {"measurement": "equivalents of guest at saturation (1H NMR)", "setting": "[2]; in acetonitrile", "value": "seven"}
    ]},
    {"molecule": "CC[C@H](C)[C@H](NC(=O)CNC(=O)c1ccccc1N)C(=O)N[C@H](C(=O)N[C@@H](CCCNC(=N)N)C(=O)N[C@@H](C)C(=O)N[C@@H](CCCCNc1ccc([N+](=O)[O-])cc1[N+](=O)[O-])C(=O)O)C(C)C", "note": "[Guest G9, Abz-NH-G-I-V-R-A-K(Dnp)-OH] (H-[2Abz]GIVRAK(Dnp)-OH)", "values": [
      {"measurement": "hydrolysis by trypsin in the presence of free Zn porphyrin", "setting": "[3]; free A or water-soluble Zn-tetrakis(4-sulfonatophenyl)porphyrin 72 μM, peptide 20 μM, trypsin 6 μM, pH 7.5, 30 min", "value": "unaffected"},
      {"measurement": "cleavage by trypsin, single peptide, no 1", "setting": "[3]; peptide 20 μM, trypsin 6 μM (0.3 equiv.), 40% CH3CN / 50% phosphate buffer (0.1 M, pH 7.5, 0.2 M NaCl) / 10% H2O, room temperature, 30 min, RP-HPLC UV", "value": "quantitative"},
      {"measurement": "cleavage by trypsin, single peptide, in the presence of 0.6 equiv. of 1", "setting": "[3]; [7]", "value": "quantitative"},
      {"measurement": "Kd (μM) in CD3CN:H2O (1:1)", "setting": "[1]; [8]", "value": "no binding interaction; also recorded: not observed to interact"}
    ]},
    {"molecule": "CC[C@H](C)[C@H](NC(=O)[C@@H](N)CCC(=O)O)C(=O)N[C@@H](CC(C)C)C(=O)N[C@@H](CC(=O)O)C(=O)N[C@H](C(=O)N1CCC[C@H]1C(=O)N[C@@H](CO)C(=O)N[C@H](C(=O)O)[C@@H](C)O)C(C)C", "note": "[Guest G10, H2N-E-I-L-D-V-P-S-T-OH]", "values": [
      {"measurement": "Kd (μM) in CD3CN:H2O (1:1)", "setting": "[1]; [8]", "value": "no binding interaction; also recorded: not observed to interact"}
    ]},
    {"molecule": "c1cscn1", "note": "[thiazole]", "values": [
      {"measurement": "Kd", "setting": "[1]; [6]", "value": "1000 ± 200", "unit": "µM"}
    ]},
    {"molecule": "H-SSWGHVGKYVHGWSHVS-OH [Guest G8]", "values": [
      {"measurement": "yield of cleavage by trypsin, mixture of G8 and G9, 0.6 equiv of 1", "setting": "[3]; both peptides 20 μM, trypsin 6 μM, 1 12 μM, 40% CH3CN / phosphate buffer pH 7.5, room temperature, 30 min, RP-HPLC UV", "value": 11, "unit": "%"},
      {"measurement": "cleavage by trypsin, single peptide, in the presence of 0.6 equiv. of 1", "setting": "[3]; [7]", "value": 9, "unit": "%"},
      {"measurement": "metabolised at 0.5 h", "setting": "[4]", "value": 76, "unit": "%"},
      {"measurement": "Kd", "setting": "[1]; [6]", "value": "9 ± 2", "unit": "µM"},
      {"measurement": "times lower affinity than G7", "setting": "[1]; in 1:1 acetonitrile:water", "value": 100}
    ]},
    {"molecule": "VFQFLGKIIHHVGNFVHGFSHVF [Guest G7, Clavanin A]", "values": [
      {"measurement": "equivalents of guest that saturate the cage (UV-Vis)", "setting": "[1]; 1:1 CH3CN:H2O, 20 °C, 1 at 1.5 µM (G7 3 µM)", "value": "two"},
      {"measurement": "Kd", "setting": "[1]; 1:1 CH3CN:H2O, 20 °C, 1 at 1.5 µM (Supplementary Figure 43), 2:1 peptide:1 model, read-out: Kd, titration at 1.5 µM cage", "value": "0.06 ± 0.05", "unit": "µM"},
      {"measurement": "Kd", "setting": "[1]; [6]", "value": "0.08 ± 0.02", "unit": "µM"},
      {"measurement": "solubility at neutral pH", "setting": "[5]; trypsinization conditions", "value": "low solubility"}
    ]},
    {"molecule": "tetrakis(formylpyridine)porphyrin A", "values": [
      {"measurement": "solubility in water or acetonitrile", "setting": "[5]; in either water or acetonitrile", "value": "not observed to dissolve"}
    ]}
  ]
}
